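Protocol summary: plate cells (96-well), add compound at 5 concentrations, incubate 48 h, interpolate endpoints linearly. The concentration for 50% growth inhibition is given as GI50. The concentration for full growth arrest is given as TGI.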
Columns and labels:
Assay in all cases: growth of human tumour cells (NCI), 48 h
786-0 renal = system: 786-0 renal
A498 renal = system: A498 renal
A549 NSCLC = system: A549 NSCLC
ACHN renal = system: ACHN renal
BT-549 breast = system: BT-549 breast
CAKI-1 renal = system: CAKI-1 renal
CCRF-CEM leukemia = system: CCRF-CEM leukemia
COLO 205 colon = system: COLO 205 colon
DU-145 prostate = system: DU-145 prostate
EKVX NSCLC = system: EKVX NSCLC
HCC-2998 colon = system: HCC-2998 colon
HCT-116 colon = system: HCT-116 colon
HCT-15 colon = system: HCT-15 colon
HL-60(TB) leukemia = system: HL-60(TB) leukemia
HOP-62 NSCLC = system: HOP-62 NSCLC
HOP-92 NSCLC = system: HOP-92 NSCLC
HS 578T breast = system: HS 578T breast
HT29 colon = system: HT29 colon
IGROV1 ovarian = system: IGROV1 ovarian
K-562 leukemia = system: K-562 leukemia
KM12 colon = system: KM12 colon
LOX IMVI melanoma = system: LOX IMVI melanoma
MALME-3M melanoma = system: MALME-3M melanoma
MCF7 breast = system: MCF7 breast
MDA-MB-231 breast = system: MDA-MB-231 breast
MDA-MB-435 = system: MDA-MB-435
MOLT-4 leukemia = system: MOLT-4 leukemia
NCI-H226 lung = system: NCI-H226 lung
NCI-H23 lung = system: NCI-H23 lung
NCI-H460 lung = system: NCI-H460 lung
NCI-H522 lung = system: NCI-H522 lung
NCI/ADR-RES ovarian = system: NCI/ADR-RES ovarian
OVCAR-3 ovarian = system: OVCAR-3 ovarian
OVCAR-4 ovarian = system: OVCAR-4 ovarian
OVCAR-5 ovarian = system: OVCAR-5 ovarian
OVCAR-8 ovarian = system: OVCAR-8 ovarian
PC-3 prostate = system: PC-3 prostate
RPMI-8226 leukemia = system: RPMI-8226 leukemia
RXF 393 renal = system: RXF 393 renal
SF-268 CNS = system: SF-268 CNS
SF-295 CNS = system: SF-295 CNS
SF-539 CNS = system: SF-539 CNS
SK-MEL-2 melanoma = system: SK-MEL-2 melanoma
SK-MEL-28 melanoma = system: SK-MEL-28 melanoma
SK-MEL-5 melanoma = system: SK-MEL-5 melanoma
SK-OV-3 ovarian = system: SK-OV-3 ovarian
SN12C renal = system: SN12C renal
SNB-19 CNS = system: SNB-19 CNS
SNB-75 CNS = system: SNB-75 CNS
SR leukemia = system: SR leukemia
SW-620 colon = system: SW-620 colon
T-47D breast = system: T-47D breast
TK-10 renal = system: TK-10 renal
U251 CNS = system: U251 CNS
UACC-257 melanoma = system: UACC-257 melanoma
UACC-62 melanoma = system: UACC-62 melanoma
UO-31 renal = system: UO-31 renal

CCN(CC)CCOc1ccc(C(=C(C)Cc2ccc(OC)cc2)c2ccc(OCCN(CC)CC)cc2)cc1
GI50 (786-0 renal): 3.42 µM
TGI (786-0 renal): 7.04 µM
GI50 (A498 renal): 3.67 µM
TGI (A498 renal): 16 µM
GI50 (A549 NSCLC): 4.52 µM
TGI (A549 NSCLC): 10.6 µM
GI50 (ACHN renal): 4.46 µM
TGI (ACHN renal): 8.67 µM
GI50 (BT-549 breast): 3.84 µM
TGI (BT-549 breast): 7.48 µM
GI50 (CAKI-1 renal): 3.63 µM
TGI (CAKI-1 renal): 7.38 µM
GI50 (CCRF-CEM leukemia): 2650 nM
TGI (CCRF-CEM leukemia): 7.2 µM
GI50 (COLO 205 colon): 4.45 µM
TGI (COLO 205 colon): 10.3 µM
GI50 (DU-145 prostate): 4.59 µM
TGI (DU-145 prostate): 10.6 µM
GI50 (EKVX NSCLC): 3.84 µM
TGI (EKVX NSCLC): 9.13 µM
GI50 (HCC-2998 colon): 3.57 µM
TGI (HCC-2998 colon): 6.97 µM
GI50 (HCT-116 colon): 2950 nM
TGI (HCT-116 colon): 6.51 µM
GI50 (HCT-15 colon): 2650 nM
TGI (HCT-15 colon): 6.25 µM
GI50 (HL-60(TB) leukemia): 3.46 µM
TGI (HL-60(TB) leukemia): 7.77 µM
GI50 (HOP-62 NSCLC): 4.7 µM
TGI (HOP-62 NSCLC): 11.2 µM
GI50 (HOP-92 NSCLC): 1070 nM
TGI (HOP-92 NSCLC): 8.98 µM
GI50 (HS 578T breast): 4.34 µM
TGI (HS 578T breast): 11.5 µM
GI50 (HT29 colon): 2830 nM
TGI (HT29 colon): 7.8 µM
GI50 (IGROV1 ovarian): 4.18 µM
TGI (IGROV1 ovarian): 8.31 µM
GI50 (K-562 leukemia): 609 nM
TGI (K-562 leukemia): 2080 nM
GI50 (KM12 colon): 3.66 µM
TGI (KM12 colon): 7.57 µM
GI50 (LOX IMVI melanoma): 3.04 µM
TGI (LOX IMVI melanoma): 6.44 µM
GI50 (MALME-3M melanoma): 6.12 µM
TGI (MALME-3M melanoma): 10.5 µM
GI50 (MCF7 breast): 2860 nM
TGI (MCF7 breast): 6.51 µM
GI50 (MDA-MB-231 breast): 3.93 µM
TGI (MDA-MB-231 breast): 7.91 µM
GI50 (MDA-MB-435): 3.96 µM
TGI (MDA-MB-435): 7.48 µM
GI50 (MOLT-4 leukemia): 3.13 µM
TGI (MOLT-4 leukemia): 7.55 µM
GI50 (NCI-H226 lung): 4.37 µM
TGI (NCI-H226 lung): 11.3 µM
GI50 (NCI-H23 lung): 4.59 µM
TGI (NCI-H23 lung): 10.5 µM
GI50 (NCI-H460 lung): 3.92 µM
TGI (NCI-H460 lung): 7.8 µM
GI50 (NCI-H522 lung): 4.56 µM
TGI (NCI-H522 lung): 9.86 µM
GI50 (NCI/ADR-RES ovarian): 4.24 µM
TGI (NCI/ADR-RES ovarian): 8.74 µM
GI50 (OVCAR-3 ovarian): 3.2 µM
TGI (OVCAR-3 ovarian): 7.5 µM
GI50 (OVCAR-4 ovarian): 4.48 µM
TGI (OVCAR-4 ovarian): 10.7 µM
GI50 (OVCAR-5 ovarian): 3.68 µM
TGI (OVCAR-5 ovarian): 7.32 µM
GI50 (OVCAR-8 ovarian): 6.08 µM
TGI (OVCAR-8 ovarian): 15.2 µM
GI50 (PC-3 prostate): 3.88 µM
TGI (PC-3 prostate): 8.15 µM
GI50 (RPMI-8226 leukemia): 3.27 µM
TGI (RPMI-8226 leukemia): 8.39 µM
GI50 (RXF 393 renal): 1420 nM
TGI (RXF 393 renal): 5.11 µM
GI50 (SF-268 CNS): 4.22 µM
TGI (SF-268 CNS): 9.16 µM
GI50 (SF-295 CNS): 4.36 µM
TGI (SF-295 CNS): 8.49 µM
GI50 (SF-539 CNS): 3.7 µM
TGI (SF-539 CNS): 7.37 µM
GI50 (SK-MEL-2 melanoma): 4.8 µM
TGI (SK-MEL-2 melanoma): 9.83 µM
GI50 (SK-MEL-28 melanoma): 3.72 µM
TGI (SK-MEL-28 melanoma): 7.21 µM
GI50 (SK-MEL-5 melanoma): 4 µM
TGI (SK-MEL-5 melanoma): 7.47 µM
GI50 (SK-OV-3 ovarian): 5.06 µM
TGI (SK-OV-3 ovarian): 10.5 µM
GI50 (SN12C renal): 3.55 µM
TGI (SN12C renal): 7.19 µM
GI50 (SNB-19 CNS): 4.44 µM
TGI (SNB-19 CNS): 8.84 µM
GI50 (SNB-75 CNS): 13.4 µM
TGI (SNB-75 CNS): 25 µM
GI50 (SR leukemia): 805 nM
TGI (SR leukemia): 3.1 µM
GI50 (SW-620 colon): 3.75 µM
TGI (SW-620 colon): 7.71 µM
GI50 (T-47D breast): 4.06 µM
TGI (T-47D breast): 10.9 µM
GI50 (TK-10 renal): 3.86 µM
TGI (TK-10 renal): 8.67 µM
GI50 (U251 CNS): 3.99 µM
TGI (U251 CNS): 8.34 µM
GI50 (UACC-257 melanoma): 4.62 µM
TGI (UACC-257 melanoma): 9.29 µM
GI50 (UACC-62 melanoma): 4.59 µM
TGI (UACC-62 melanoma): 8.87 µM
GI50 (UO-31 renal): 3.42 µM
TGI (UO-31 renal): 6.82 µM

Reference: PubChem BioAssay (NCI)
